Measured values: patent US11054425B2, “System and method for identification and characterization of transglutaminase species” (Roche Sequencing Solutions, Inc., priority 2014, dated 2021)
No end group written: not given here. *: point of attachment. Cbz = O=C(OCc1ccccc1)*

Assays:
KalbTG [1] = assay: 5-mer peptide array, glutamine-substrate screening with biotinylated amine donor; type: biochemical, Kutzneria albida; conditions: incorporation of biotinylated amine-donor on 5-mer peptide array
Procedure: To identify potential acyl-donor and amine-donor substrates of the K. albida transglutaminase, high-throughput screening on 5-mer peptide arrays was performed (FIGS. 4A and 4B). An activity of at least 1.65 U/mg for both the SlyD-fused and the mature KalbTG enzymes was confirmed by commercial assay (Zedira MTG-ANiTA-KIT; compared to 4.3 U mg^−1 by the MTG supplied with the kit and a 0.07 U/mg blank value with BSA). The assay used β-casein as a cross-linking substrate and detected deamidation by a glutamate dehydrogenase dependent oxidation of NADPH. Specific recognition motifs were identified by assaying KalbTG with peptide arrays prepared by maskless array synthesis (U.S. Pat. Pub. No 2015/0185216 to Albert et al. filed on 19 Dec. 2014). The efficiency of the transamidation reaction between 1.4 million unique 5-mer peptides and a biotinylated amine donor was quantified on two arrays in parallel and the sequences of the peptides with the highest turnovers were determined (FIG. 4A). The nine best peptides were resynthesized and tested for KalbTG activity in a standalone GLDH-coupled assay. Note that the array signal for the sequence MLAQG (SEQ ID NO:13) is marked not applicable (n. a.) as this sequence was not included on the array. Similarly, measurement of a background signal was only applicable to experiments performed on the array.
For construction of the peptide array, a library of 1,360,732 unique 5-mer peptides was designed by using all combinations of 18 natural amino acids excluding cysteine and methionine, as well as any dimer or a longer repeat of the same amino acid, and any peptide containing a dipeptide selected from HR, RH, HK, KH, RK, KR, HP, and PQ sequences. The library was synthesized in duplicate on the same array by using maskless light-directed peptide array synthesis. Each 5-mer peptide was flanked on both the N-terminus and C-terminus by 3 amino acid-long linkers synthesized by using mixture of glycine and serine having a 3:1 ratio.
To test KalbTG specificity for glutamine-containing substrate, N-(biotinyl)cadaverine was used as a substitute for a lysine substrate to biotinylate glutamine-peptides on a peptide array. KalbTG labeling reaction was performed in 1200 μL 100 mM Tris-HCl pH 8, 1 mM DTT, 50 μM N-(biotinyl)cadaverine, 0.2 ng μl^−1 KalbTG in SecureSeal™ chamber (Grace Bio-Labs) at 37° C. for 45 minutes. After incubation the chamber was removed and the array was washed in 20 mM Tris-HCl, pH7.8, 0.2 M NaCl, 1% SDS for 1 minute followed by a 1 minute wash in 20 mM Tris-HCl. Biotin linked to the array was stained with 0.3 μg ml^−1 Cy5-streptavidin in 10 mM Tris-HCl, pH7.4, 1% alkali-soluble casein, 0.05% TWEEN-20 non-ionic detergent at room temperature for 1 hour. Cy5 fluorescence intensity was measured with a fluorescence scanner at a resolution of 2 μm and a wavelength of 635 nm.

KalbTG [2] = assay: GLDH-coupled assay in solution (NADH oxidation); type: biochemical, Kutzneria albida
Procedure: KalbTG activity was obtained by measuring incorporation of a biotinylated amine-donor on the peptide array and rates of NADH oxidation at 340 nm and 37° C. in the presence of amine-donor substrate (500 μM) in the GLDH-coupled assay using 100 μM each of nine of the best-performing array-selected glutamine-containing substrates and of two S. mobaraensis MTG glutamine-containing substrates. […] Testing of the top sequences in Table 1 confirmed YRYRQ (SEQ ID NO: 1) and RYRQR (SEQ ID NO 14) as the top performing 5-mer substrates, with turnover rates of 3.52±0.08 pmol NADH s^−1 and 3.60±0.12 pmol NADH s^−1, respectively.
With reference to Table 2, KalbTG activity was obtained by measuring incorporation of a biotinylated glutamine-donor and rates of NADH oxidation at 340 nm and 37° C. in the presence of glutamine-donor substrate (200 μM) in the GLDH-coupled assay using 100 μM each of i) six of the top-performing array-selected lysine substrates, ii) cadaverine, and iii) preferred MTG lysine substrate ARSKL (SEQ ID NO:30). […] This is a small but significant increase over cadaverine (3.51±0.12 pmol s^−1) or ARSKL (SEQ ID NO:30) (3.87±0.31 pmol s^−1), a peptide previously established as a preferred MTG lysine donor motif on the peptide array. Additional details on the S. mobaraensis MTG substrate peptide ARSKL (SEQ ID NO:30) can be found in U.S. Provisional Patent Application Ser. No. 62/094,495 to Albert et al. filed on Dec. 19, 2014.
(§1) For the GLDH coupled assay, to determine whether the KalbTG peptides selected in the array assay were also preferred substrates in a solution reaction and to quantify cross-reactivity of KalbTG and S. mobaraensis MTG with various substrates, a continuous glutamate dehydrogenase (GLDH)-coupled assay for S. mobaraensis MTG activity (see Oteng-Pabi, et al., 2013. Analytical biochemistry 441(2): 169-173) was applied.
(§2) For glutamine substrate evaluation, the assay was performed in a transparent 96-well microtiter plate in the presence of 500 μM α-ketoglutarate, 500 μM or 1 mM cadaverine as Amine donor substituting for a lysine-containing peptide, 2 U ml^−1 of glutamate dehydrogenase (GLDH), 500 μM NADH and glutamine-containing substrate peptide (Z-[[…] (SEQ ID NO:77)], Z-[[…] (SEQ ID NO:78)], Z-[[…] (SEQ ID NO:75)], Z-[[…] (SEQ ID NO:79)], Z-[[…] (SEQ ID NO:80)], Z-[[…] (SEQ ID NO:81)], Z-[[…] (SEQ ID NO:82)], Z-[[…] (SEQ ID NO:83)], Z-[[…] (SEQ ID NO:84)], Z-[[…] (SEQ ID NO:85)], Z-[[…] (SEQ ID NO:86)], Z-[[…] (SEQ ID NO:76)] or Z-[[…] (SEQ ID NO:87)]) concentrations ranging between 0 and 1 mM in 200 mM MOPS, 1 mM EDTA pH 7.2 (total volume per well 200 μl).
For amine substrate evaluation, assay conditions were the same as for glutamine substrate evaluation with the exception that 100 μM each of amine substrate (Z-[[…] (SEQ ID NO:88)], Z-[[…] (SEQ ID NO:89)], Z-[[…] (SEQ ID NO:90)], Z-[[…] (SEQ ID NO:91)], Z-[[…] (SEQ ID NO:92)], Z-[[…] (SEQ ID NO:93)], Z-[[…] (SEQ ID NO:94)], Z-[[…] (SEQ ID NO:95)] or cadaverine) and 200 μM glutamine donor (Z-[[…] (SEQ ID NO:75)] or Z-[[…] (SEQ ID NO:76)]) were used.
Reactions were started by the addition of 5 μg ml^−1 of S. mobaraensis MTG or KalbTG and the oxidation of NADH was continuously recorded at 340 nm for 60 minutes using a Biotek Synergy H4 microplate reader, temperature controlled at 37° C., with short shaking intervals before each measurement. After a short lag phase where the GLDH was saturated by transglutaminase-mediated release of ammonia, linear rates of absorbance versus time corresponding to transglutaminase turnover were observed and subjected to Michaelis-Menten kinetic analysis. […]

S. mobaraensis MTG = assay: GLDH-coupled assay in solution (NADH oxidation); type: biochemical, Streptomyces mobaraensis; conditions: enzyme MTG; glutamine-donor 0 to 1 mM, cadaverine 1 mM, 37° C.
Procedure: as §1, §2
Reactions were started by the addition of 5 μg ml^−1 of S. mobaraensis MTG or KalbTG and the oxidation of NADH was continuously recorded at 340 nm for 60 minutes using a Biotek Synergy H4 microplate reader, temperature controlled at 37° C., with short shaking intervals before each measurement. After a short lag phase where the GLDH was saturated by transglutaminase-mediated release of ammonia, linear rates of absorbance versus time corresponding to transglutaminase turnover were observed and subjected to Michaelis-Menten kinetic analysis. Rates of absorbance in millioptical density units per minute (mOD min^−1) were converted into molar rates of NADH turnover (pmol s^−1) using the formula of Equation 1 (previously determined by an NADH standard curve): Turnover rate=|Absorbance rate|*1.111 (Eq. 1)

[3] = system: Z-[GGGYRYRQGGGG (SEQ ID NO:75)]-OH; assay: GLDH assay of transglutaminase enzyme activity after storage; type: biochemical; conditions: 200 μM glutamine substrate, 10 mM cadaverine, 37° C., pH 7.4
Procedure: A further experiment was performed to determine the activity of KalbTG enzymes prepared from two different constructs, and stored at two different temperatures. The KalbTGt3 (SEQ ID NO:10) and KalbTGt1 (SEQ ID NO: 12) enzymes tested were obtained respectively from the EcSlyD2-Xa-KalbTGt3-8×His-tag construct (SEQ ID NO:8) and the EcSlyD2-Xa-KalbTGt1-8×His-tag construct (SEQ ID NO:11) described in Example 3. The activity of the two KalbTG enzymes was tested after storage at either 4° C. or −20° C. and compared against the activity of commercially available S. mobaraensis MTG according to a published protocol (Oteng-Pabi, et al., 2013. Analytical biochemistry 441(2): 169-173). In particular, assays were performed at 37° C. in 200 μl total volume. The assay mixture included 200 mM MOPS, 1 mM EDTA, and 1 mM DTT at pH 7.4. Further, α-ketoglutarate and NADH were added at a concentration of 500 μM, along with 2 U/ml GLDH, and between 0.1 μg and 1.0 μg of one of the transglutaminase enzymes. The glutamine substrate was 200 μM Z-[[…] (SEQ ID NO:75)]-OH, and the amine donor was 10 mM cadaverine, where Z represents a carboxybenzyl group. All data were collected in triplicate (average of 3 wells in a microtiter plate) and baseline activity (buffer without enzyme) subtracted.

[4] = enzyme KalbTG, glutamine-donor 0 to 1 mM, cadaverine 1 mM, 37° C.

Molecule	Array signal (log2) (KalbTG [1])	Km (S. mobaraensis MTG)	Vmax (S. mobaraensis MTG)	kcat (S. mobaraensis MTG)	Activity ([3]; storage −20 ° C.)	Activity ([3]; storage 4 ° C.)	further results
DYALQ (Cbz-DYALQ) [preferred S. mobaraensis MTG glutamine-containing substrate, reference compound]	7.22 log2	847 ± 138 µM	36.66 ± 3.33 pmol/s	1.39 S^−1			reactivity of KalbTG towards substrate (KalbTG [2]; kinetics, varying substrate concentrations): completely unreactive
YRYRQ (Cbz-YRYRQ) [KalbTG glutamine-donor (Q-tag) 5-mer]	8.99 log2	644 ± 58.4 µM	21.50 ± 1.00 pmol/s	0.93 S^−1			Reaction rate in solution (KalbTG [2]; 100 μM glutamine-containing substrate, 500 μM amine-donor substrate, NADH oxidation at 340 nm, 37° C.): 3.52 ± 0.08 pmol/s; Km (KalbTG [2]; enzyme KalbTG): 2000 µM; Km (KalbTG [2]; [4]): 2150 ± 291 µM; Vmax (KalbTG [2]; [4]): 73.18 ± 7.27 pmol/s; kcat (KalbTG [2]; [4]): 1.92 S^−1
S. mobaraensis MTG: commercially available Streptomyces mobaraensis microbial transglutaminase (protein, protein-glutamine gamma-glutamyltransferase, commercially available Streptomyces mobaraensis microbial transglutaminase) MRIRRRALVFATMSAVLCTAGFMPSAGEAAADNGAGEETKSYAETYRLTADDVANINALNESAPAASSAGPSFRAPDSDDRVTPPAEPLDRMPDPYRPSYGRAETVVNNYIRKWQQVYSHRDGRKQQMTEEQREWLSYGCVGVTWVNSGQYPTNRLAFASFDEDRFKNELKNGRPRSGETRAEFEGRVAKESFDEEKGFQRAREVASVMNRALENAHDESAYLDNLKKELANGNDALRNEDARSPFYSALRNTPSFKERNGGNHDPSRMKAVIYSKHFWSGQDRSSSADKRKYGDPDAFRPAPGTGLVDMSRDRNIPRSPTSPGEGFVNFDYGWFGAQTEADADKTVWTHGNHYHAPNGSLGAMHVYESKFRNWSEGYSDFDRGAYVITFIPKSWNTAPDKVKQGWP					1.1348 ± 0.0059 μmol NH3/min/mg Enzyme		
KalbTGt3: KalbTG enzyme from EcSlyD2-Xa-KalbTGt3-8×His after factor Xa and trypsin digest (protein, synthetic peptide sequence - KalbTGt3-8xHis-tag (post-trypsin digest); K-albida_MTG; 8xHis-tag, KalbTG enzyme from EcSlyD2-Xa-KalbTGt3-8×His after factor Xa and trypsin digest) APLAPPLAEDRSYRTWRVEDYVEAWERYHGREMTEDERENLARGCIGVTVVNLNREDLSNPPLNLSFGSLRTAEAVQAALNKIVDTHPSPAQYEAAVAKDPILKRLKNVVKALPSWIDSAKLKASIFSKRFYSWQNPDWSEERAHTTYRPDRETDQVDMSTYRYRARPGYVNFDYGWFDQDTNTWWHANHEEPRMVVYQSTLRHYSRPLQDFDEQVFTVAFAKKDGGGSGHHHHHHHH					0.1528 ± 0.0400 μmol NH3/min/mg Enzyme	0.1501 ± 0.0011 μmol NH3/min/mg Enzyme	
KalbTGt1: KalbTG enzyme without propeptide, expressed and purified with ammonium (protein, synthetic peptide sequence - KalbTGt1-8xHis; K-albida_MTG; 8xHis-tag, KalbTG enzyme without propeptide, expressed and purified with ammonium) MLAPPLAEDRSYRTWRVEDYVEAWERYHGREMTEDERENLARGCIGVTVVNLNREDLSNPPLNLSFGSLRTAEAVQAALNKIVDTHPSPAQYEAAVAKDPILKRLKNVVKALPSWIDSAKLKASIFSKRFYSWQNPDWSEERAHTTYRPDRETDQVDMSTYRYRARPGYVNFDYGWFDQDTNTWWHANHEEPRMVVYQSTLRHYSRPLQDFDEQVFTVAFAKKDGHHHHHHHH					0.8630 ± 0.0259 μmol NH3/min/mg Enzyme	1.4099 ± 0.1806 μmol NH3/min/mg Enzyme	
